Reference: patent US20070179113A1, “GM-CSF gene therapy for Crohn's disease using an improved regulated expression system” (Schering Aktiengesellachaft, priority 2005, published 2007)

What was measured:
Assay type in all cases: in vivo, C57BL/6 mice
JE = JE plasma level after bolus mIFN-β protein (ELISA)
Experimental: (§1) C57BL/6 mice were administered 15, 150, or 500 ng of purified recombinant mIFN-β protein (specific activity=2.0×10^8 units/mg) by either i.v. (via tail vein) or i.m. injection (n=3 mice per group). The mice were bled at 2, 4, 6, 12, 24, and 48 hours post-injection, and the plasma levels of IP-10 and JE were measured by ELISA (R&D Systems).

IP-10 = IP-10 plasma level after bolus mIFN-β protein (ELISA)
Experimental: as §1

Mx1 RNA = Mx1 RNA induction in PBMCs after bolus injection of mIFN-β protein
Experimental: FIG. 6 illustrates Mx1 RNA induction following i.v. (A) or i.m. injection (B) of mIFN-β protein. C57BL/6 mice were administered 15, 150, or 500 ng of purified recombinant mIFN-β protein (specific activity-2.0×10^8 units/mg) by either i.v. (via tail vein) or i.m. injection (n=3 mice per group). At the specified time points post-injection mice were bled, and RNA was isolated from PBMCs. Mx1 RNA was measured by quantitative RT-PCR. The fold increase in Mx1 RNA is expressed relative to GAPDH values measured in the same samples. The controls include naive mice (N), and mice injected with the vehicle buffer only followed by Mx1 analysis at 2 hours (V2 h) or 4 h (V4 h) post-injection. Each column represents the mean value +/− standard deviation.
A quantitative PCR/RT-PCR assay was developed to quantitate the levels of Mx1 mRNA in murine PBMC's. Specifically, peripheral blood mononuclear cells (PBMCs) were isolated from mice treated with either mIFN-β protein or following gene-based delivery of the mIFN-β gene. Blood samples obtained from treated mice were centrifuged on a ficoll cushion for 25 minutes at 2,000 rpm. Purified PBMCs were pelleted and RNA for the Mx1 assay was purified using the “RNAeasy” mini extraction kit from Qiagen. The RNA was stored in H2O at −80° C. Mx1 RT-PCR was performed using TaqMan® chemistry and analysis was done on the Applied Biosystems (ABI) PRISM® 7700 Sequence Detection instrument. For reverse transcription of the RNA and amplification of cDNA, the “One-step TaqMan® RNA” kit from ABI was used. RNA was reverse transcribed for 30 minutes at 48° C. and the amplification was done in 40 cycles with a denaturation step at 95° C. for 30 seconds, and an annealing/elongation step at 60° C. for 1 minute. The samples were analyzed with an Mx1-specific probe/primer combination. Mx1 expression was normalized to GAPDH expression measured in parallel using a standard assay from ABI.
B. Bolus Injection of mIFN-β Protein Induces Transient Biomarker Response In Vivo: The biomarker response after bolus injection of purified recombinant mIFN-β was measured in these studies. […] The highest Mx1 expression levels were measured 2 hours after injection. […] At the 500 ng dose there was a diminished level of Mx1 RNA induction. This saturating effect has been observed in other studies in which high IFN-β levels lead to an apparent down-regulation of the bioresponse, perhaps due to down regulation of the IFN type I receptor (see e.g., Mager, D E and Jusko, W J (2002) Pharm Res 19:1537-43). Mx1 RNA expression in the i.v. injected mice also peaked at approximately 2 hours post-injection and dropped rapidly thereafter.
This is the first time that the expression of Mx1 RNA has been used as a biomarker to follow the activity of mIFN-β in mice. […] However, the upregulation is short term and rapidly drops from high expression levels to background within 12-24 hours.

mIFN-β: purified recombinant murine interferon-beta protein expressed in 293E cells
time by which plasma JE dropped to background (JE; each of three doses): ≤ 24 h
time of strong induction of JE after administration (JE; i.v. or i.m.): 2 h
time by which plasma IP-10 dropped to background (IP-10; each of three doses): ≤ 24 h
increase of IP-10 levels (IP-10; high dose delivered i.v.): 3000 fold
time of strong induction of IP-10 after administration (IP-10; i.v. or i.m.): 2 h
induction of Mx1 RNA expression relative to vehicle injected mice (Mx1 RNA; 15, 150 or 500 ng, i.v. or i.m.): 25- to 50 fold
time within which Mx1 upregulation drops to background (Mx1 RNA; bolus protein): 12 to 24 h
time beyond which no Mx1 RNA levels above background were detected (Mx1 RNA; i.m.): ≤ 12 h
dose giving the highest Mx1 induction (Mx1 RNA; i.v.): 150 ng
time of peak Mx1 RNA expression post-injection (Mx1 RNA; i.v.): approximately 2 hours
time of highest Mx1 expression levels after injection (Mx1 RNA; i.v. or i.m.): 2 h
